Test results reported in patent US12617762B2, “Carboxy derivatives with antiinflamatory properties” (Sitryx Therapeutics Limited, priority 2019, dated 2026).
Like-named read-outs stand apart in the source and are kept apart here.

Legend:
[1] = system: IL-1β cytokine output from THP-1s; test: THP-1 AlphaLISA IL-1β cytokine inhibition assay; type: cell-based; conditions: for IC50: Homo sapiens; for IL-1β lowering, result in words: THP-1 IL-1β assay
In short: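 THP-1 cells differentiated with PMA for 72 h, pre-incubated with compound 30 min, then LPS-primed 24 h and Nigericin-stimulated 1 h (37° C./5% CO2). Supernatant IL-1β measured by AlphaLISA; percentage inhibition normalised to +LPS (high) and −LPS (low) plate controls.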

[2] = system: NRF2 (nuclear factor erythroid 2-related factor 2); test: NRF2 +/-GSH activation assay (DiscoverX PathHunter NRF2 translocation kit, U2OS cells); type: cell-based
Description: Measuring Compound Activation Effects on the Anti-Inflammatory Transcription Factor NRF2 in DiscoverX PathHunter NRF2 Translocation Kit
Potency and efficacy of compounds of formula (I) against the target of interest to activate NRF2 (nuclear factor erythroid 2-related factor 2) were determined using the PathHunter NRF2 translocation kit (DiscoverX). The NRF2 translocation assay was run using an engineered recombinant cell line, utilising enzyme fragment complementation to determine activation of the Keap1-NRF2 protein complex and subsequent translocation of NRF2 into the nucleus. Enzyme activity was quantified using a chemiluminescent substrate consumed following the formation of a functional enzyme upon PK-tagged NRF2 translocation into the nucleus.
The assay was run under both +/−GSH (glutathione) conditions to determine the sensitivity of the compounds' NRF2-activating abilities to attenuation by GSH.
Additionally, a defined concentration of DMF was used as the ‘High’ control to normalise test compound activation responses to.
U2OS PathHunter eXpress cells were thawed from frozen prior to plating. Following plating, U2OS cells were incubated for 24 hrs (37° C./5% CO2) in commercial kit provided cell medium.
Following 24 hrs of U2OS incubation, cells were directly treated with an appropriate final concentration of compound, for −GSH conditions or, for +GSH conditions, an intermediate plate containing 6× working concentrations of compound stocks was prepared in a 6 mM working concentration of GSH solution (solubilised in sterile PBS). Following a 30 minute compound-GSH pre-incubation (37° C./5% CO2) for +GSH treatment, plated U2OS cells were incubated with an appropriate final concentration of compound and GSH.
Following compound (+/−GSH) treatment, the U2OS plates were incubated for a further 6 hours (37° C./5% CO2) before detection reagent from the PathHunter NRF2 commercial kit was prepared and added to test plates according to the manufacturer's instructions. Subsequently, the luminescence signal detection was measured in a microplate reader (PHERAstar®, BMG Labtech).
Percentage activation was calculated by normalising the sample data to the high and low controls used within each plate (+/−DMF).

[3] = Hepatocyte stability assay, mouse; type: in vitro ADME; conditions: mouse, hepatocytes; for hepatocyte CLint at 10 μM: Hepatocyte stability Clint; for half-life at 10 μM: Hepatocyte stability T½
Description: (§1) Defrosted cryo-preserved hepatocytes (viability >70%) were used to determine the metabolic stability of a compound via calculation of intrinsic clearance (CIint; a measure of the removal of a compound from the liver in the absence of blood flow and cell binding). Clearance data are particularly important for in vitro work as they can be used in combination with in vivo data to predict the half-life and oral bioavailability of a drug.
(§2) The metabolic stability in hepatocytes assay involves a time-dependent reaction using both positive and negative controls. The cells were pre-incubated at 37° C. then spiked with test compound (and positive control); samples were taken at pre-determined time intervals and were analysed to monitor the change in concentration of the initial drug compound over 60 minutes. A buffer incubation reaction (with no hepatocytes present) acted as a negative control and two cocktail solutions, containing compounds with known high and low clearance values (verapamil/7-hydroxycoumarin and propranolol/diltiazem), acted as positive controls. • 1. The assay was run with a cell concentration of 0.5×10^6 cells/mL in Leibovitz buffer. • 2. All compounds and controls were run in duplicate. • 3. Compound concentration was 10 μM. • 4. All compounds and controls were incubated with both cells and buffer to show turnover was due to hepatic metabolism. • 5. All wells on the incubation plate had 326.7 μL of either cells or buffer added. • 6. Prior to assay, cell and buffer-only incubation plates were preincubated for 10 mins at 37° C. • 7. The assay was initiated by adding compounds, 3.3 μL of 1 mM in 10% DMSO—90% Buffer; final DMSO concentration was 0.1%. • 8. Samples were taken at regular timepoints (0, 5, 10, 20, 40, 60 min) until 60 mins. • 9. Sample volume was 40 μL and was added to 160 μL of crash solvent (acetonitrile with internal standard) and stored on ice. • 10. At the end of the assay, the crash plates were centrifuged at 3500 rpm for 20 mins at 4° C. • 11. 80 μL of clear supernatant was removed and mixed with 80 μL of deionised water before being analysed by LC-MS/MS.
(§3) Raw LC-MS/MS data was exported to, and analysed in, Microsoft Excel for determination of intrinsic clearance. The percentage remaining of a compound was monitored using the peak area of the initial concentration as 100%. Intrinsic clearance and half-life values were calculated using a graph of the natural log of percentage remaining versus the time of reaction in minutes.

[4] = Hepatocyte stability assay, human; type: in vitro ADME; conditions: human, hepatocytes; for hepatocyte CLint at 10 μM: Hepatocyte stability Clint; for half-life at 10 μM: Hepatocyte stability T½
Description: as §1, §2, §3

[5] = THP-1, differentiated THP-1 cells, LPS then nigericin
[6] = +GSH, 30 minute compound-GSH pre-incubation, read-out: NRF2 activation +GSH EC50
[7] = +GSH, normalised to DMF high control
[8] = −GSH, U2OS PathHunter cells, 6 hours compound treatment, read-out: NRF2 activation −GSH EC50
[9] = −GSH, normalised to DMF high control

IC50 ([1]; THP-1, Table 3, head to head comparison of exo vs endo double bond compounds)	EC50 ([2]; −GSH, Table 5 exo vs endo comparison, read-out: −GSH EC50)	SMILES	IC50 [1, 5]	EC50 [2, 6]	NRF2 activation +GSH Emax [2, 7]	EC50 [2, 8]	NRF2 activation −GSH Emax [2, 9]	hepatocyte CLint at 10 μM [3]	half-life at 10 μM [3]	hepatocyte CLint at 10 μM [4]	half-life at 10 μM [4]	IL-1β lowering, result in words [1]	−GSH Emax ([2]; −GSH, normalised to DMF high control, Table 5 exo vs endo comparison)
		C=C(Cc1nc(Cc2ccc(C(F)(F)F)cc2)no1)C(=O)O [Example 42, 2-((3-(4-(trifluoromethyl)benzyl)-1,2,4-oxadiazol-5-yl)methyl)acrylic acid]	27 µM	> 100 µM	8%	> 100 µM	63%	11 µL/min/1e6 cells	118 min	< 3 µL/min/1e6 cells	> 460 min		
		C=C(Cc1nc(CCCCCCCC(F)(F)F)no1)C(=O)O [Example 11, 2-((3-(8,8,8-trifluorooctyl)-1,2,4-oxadiazol-5-yl)methyl)acrylic acid]	8.2 µM	13.1 µM	149%	11.4 µM	185%	56 µL/min/1e6 cells	18 min	30 µL/min/1e6 cells	42 min		
		C=C(Cc1nc(Cc2ccc(C(C)(C)C)cc2)no1)C(=O)O [Example 15, 2-((3-(4-(tert-butyl)benzyl)-1,2,4-oxadiazol-5-yl)methyl)acrylic acid]	23.8 µM	> 100 µM	33%	57.1 µM	41%	31 µL/min/1e6 cells	35 min	7.5 µL/min/1e6 cells	167 min		
		C=C(Cc1nc(CCc2ccc(CCC)cc2)no1)C(=O)O [Example 36, 2-((3-(4-propylphenethyl)-1,2,4-oxadiazol-5-yl)methyl)acrylic acid]	37.5 µM	14.2 µM	181%	10.1 µM	216%	249 µL/min/1e6 cells	7 min	23 µL/min/1e6 cells	61 min		
		C=C(Cc1nc(Cc2cc(Cl)cc(Cl)c2)no1)C(=O)O [Example 16, 2-((3-(3,5-dichlorobenzyl)-1,2,4-oxadiazol-5-yl)methyl)acrylic acid]	45.6 µM	23.6 µM	149%	19.4 µM	180%	29 µL/min/1e6 cells	45 min	< 4 µL/min/1e6 cells	> 362 min		
		C=C(Cc1nnc(CCCCCCCC)s1)C(=O)O [Example 37, 2-((5-octyl-1,3,4-thiadiazol-2-yl)methyl)acrylic acid]	14.6 µM	9.5 µM	139%	8.4 µM	162%	> 481 µL/min/1e6 cells	< 3 min	32 µL/min/1e6 cells	40 min		
		C=C(Cc1nc(CCCCCCCC)co1)C(=O)O [Example 39, 2-((4-octyloxazol-2-yl)methyl)acrylic acid]	8.5 µM	7.6 µM	172%	5.1 µM	234%	> 460 µL/min/1e6 cells	< 3 min	386 µL/min/1e6 cells	3 min		
		C=C(Cc1nc(C(C)(C)CCCCC)no1)C(=O)O [Example 12, 2-((3-(2-methylheptan-2-yl)-1,2,4-oxadiazol-5-yl)methyl)acrylic acid]	> 100 µM	61.9 µM	73%	53.1 µM	85%	15 µL/min/1e6 cells	90 min	16 µL/min/1e6 cells	90 min	not effective	
		C=C(Cc1nc(C2CCCCCCC2)no1)C(=O)O [Example 63, 2-((3-cyclooctyl-1,2,4-oxadiazol-5-yl)methyl)acrylic acid]	> 100 µM	58 µM	49%	25.8 µM	114%	23 µL/min/1e6 cells	60 min	8 µL/min/1e6 cells	169 min	not effective	
> 100 µM	> 100 µM	CCCCOc1ccc(-c2noc(/C=C(\C)C(=O)O)n2)cc1 [Example 167]	> 100 µM	> 100 µM	15%	> 100 µM	100%	331 µL/min/1e6 cells	6 min	35 µL/min/1e6 cells	35 min		100%
		C=C(Cc1nc(-c2ccc(Cl)cc2)no1)C(=O)O [Example 7, 2-((3-(4-chlorophenyl)-1,2,4-oxadiazol-5-yl)methyl)acrylic acid]	> 100 µM	44.5 µM	89%	39.7 µM	113%	28 µL/min/1e6 cells	49 min	< 6 µL/min/1e6 cells	> 320 min	not effective	
		C=C(Cc1nnc(CCCCCCCC)o1)C(=O)O [Example 2, 2-((5-octyl-1,3,4-oxadiazol-2-yl)methyl)acrylic acid]	36.8 µM	26.8 µM	169%	19.1 µM	176%	74 µL/min/1e6 cells	19 min	95 µL/min/1e6 cells	15 min		
		C=C(Cc1nc(-c2ccc(OCCCC(F)(F)F)cc2)no1)C(=O)O [Example 146, 2-((3-(4-(4,4,4-trifluorobutoxy)phenyl)-1,2,4-oxadiazol-5-yl)methyl)acrylic acid]	> 31.6 µM	14.6 µM	125%	13.1 µM	177%	194 µL/min/1e6 cells	8 min	36 µL/min/1e6 cells	41 min		
		C=C(Cc1nc(Cc2ccc(Cl)cc2)no1)C(=O)O [Example 4, 2-((3-(4-chlorobenzyl)-1,2,4-oxadiazol-5-yl)methyl)acrylic acid]	49.3 µM	> 100 µM	23%	40.5 µM	47%	13 µL/min/1e6 cells	93 min	< 3 µL/min/1e6 cells	> 460 min		
